Measurements from patent US20250009743A1, “METHODS OF TREATING CANCERS USING STING AGONISTS” (Dana-Farber Cancer Institute, Inc., priority 2021, published 2025).

Legend:
[1] = tested on: PBM-R tumors; assay: Flow cytometry of tumor-infiltrating immune cells in PBM-R tumor-bearing mice; assay type: in vivo, mouse; settings: 14 days; for STING pathway and activated (CD86^+) conventional DCs (cDCs): FIG. 23D
Procedure: Tumors were chopped and digested in collagenase buffer as described previously (Ding et al., 2018 Cell Rep 25, 2972-2980.e2975). Single cell suspensions of tumor and ascites were obtained by filtering through 70 um strainers and treated with 1× eBioscience RBC lysis buffer (Thermo Fisher) before staining. Single cells suspensions were incubated with LIVE/DEAD Fixable Aqua Dead Cell Stain (Life Technologies, Cat #L34965) for 30 min and then blocked with anti-CD16/32 (Biolegend, clone 93) for 20 min on ice. Samples were then incubated with appropriate antibodies for 30 min on ice. Foxp3 staining buffer set (eBioscience, Cat #00-5523-00) was applied for intracellular markers staining. For the intracellular cytokine analysis, cells were stimulated with Leukocyte Activation Cocktail (BD Biosciences, Cat #550583) at 37° C. for 4-6 hours prior to FACS staining. The following antibodies were used in this study: antibodies were purchased from BioLegend unless otherwise indicated: CD45 (clone 30-F11), CD3ε (clone 145-2C11), CD4 (clone RM4-5), CD8 (clone 53-6.7), CD44 (clone IM7), CD62L (MEL-14), CD25 (PC61), IFNγ (clone XMG1.2), TNFα (clone MP6-XT22), CD11b (clone M1/70), CD11c […], F4/80 (clone BM8), Ly-6C (clone HK1.4), Ly-6G (clone 1A8), MHC-II (clone M5/114.15.2), CD80 (clone 16-10A1), CD86 (clone GL-1), MHC-I (clone KH114), FoxP3 (clone FJK-16 s; eBioscience), Phospho-IRF-3 (Ser396) (clone D601M, Cell signaling technology) and Phospho-TBK1/NAK (Ser172) (clone D52C2, Cell signaling technology). The following human antibodies were used in this study: cell surface markers includes CD45 (clone H130), CD11b (clone M1/70), CD11c (clone Bu15), CD80 (clone 2D10), CD86 (clone IT2.2), CD14 (clone 63D3), CD15 […], HLA-DR (clone L243) and HLA-A,B,C (clone W6/32); intracellular markers include CD163 (clone GHI/61), CD68 (clone Y1/82A) and CD206 (clone 15-2). Flow cytometry was performed on an LSRII (BD Biosciences) or Fortessa HTS (BD Biosciences) at DFCI Flow Cytometry Core, and all the data were analyzed using FlowJo software.

[2] = tested on: PBM-R tumors; assay: PBM-R (PARPi-resistant) ovarian tumor burden in syngeneic FVB/NJ mice; assay type: in vivo, mouse; settings: for PBM-R tumor growth inhibition: 14 days, olaparib 50 mg/kg i.p. daily, MSA-2 25 mg/kg i.p. three times a week, FIG. 23A
Procedure: The PBM and PBM-R tumor cells were transplanted orthotopically into syngeneic FVB/NJ mice to generated tumors for drug evaluation. Tumor-bearing mice were equivalently divided into control and treatment groups according to the luminescent intensity as previously described (Ding et al., 2018; Cell Rep 25, 2972-2980.e2975). Olaparib (AZD2281) was administered daily by i.p. injection at dose of 50 mg/kg body weight. Anti-PD-1 antibody (clone, 332.8H3) was diluted in PBS (250 μg/100 μl/mouse) and injected by i.p. every 3 days. MSA-2 was prepared by diluting 50 mg/ml stock in DMSO with PBS (pH 8.0) and administered every other day (three times a week, two weeks on followed by one week off) by i.p. injection at dose of 25 mg/kg body weight. The endpoints were determined by tumor burden and ascites.

SMILES: COc1cc2cc(C(=O)CCC(=O)O)sc2cc1OC [MSA-2]
- proportion of TAMs ([1]; FIG. 23B): dramatically decreased
- ratio of M1/M2 ([1]; FIG. 23C): increase
- STING pathway and activated (CD86^+) conventional DCs (cDCs) [1]: activated the STING pathway and increased tumor-infiltrating activated (CD86^+) conventional DCs
- PBM-R tumor growth inhibition [2]: little or no effect
- PBM-R tumor weight ([2]; MSA-2 25 mg/kg i.p. three times per week with olaparib 50 mg/kg + anti-PD-1, two weeks, FIG. 14D): sensitizes PARPi-resistant tumors to olaparib in vivo

SMILES: O=C(c1cc(Cc2n[nH]c(=O)c3ccccc23)ccc1F)N1CCN(C(=O)C2CC2)CC1 [olaparib]
- STING pathway and activated (CD86^+) conventional DCs (cDCs) [1]: activated the STING pathway and increased tumor-infiltrating activated (CD86^+) conventional DCs
- PBM-R tumor growth inhibition [2]: little or no effect
- response of PBM-R-shStat3 tumors in vivo ([2]; PBM-R cells with STAT3 knockdown, FIG. 19I): became sensitive
- PBM-R tumor response in vivo ([2]; orthotopically re-transplanted to syngeneic host mice, FIG. 15E): indeed resistance to PARPi in vivo
